From patent US10538498B2, “1,3,4-oxadiazole sulfonamide derivative compounds as histone deacetylase 6 inhibitor, and the pharmaceutical composition comprising the same” (Chong Kun Dang Pharmaceutical Corp., priority 2015, dated 2020)

Biological target: T1, human recombinant HDAC6 (Homo sapiens, UniProt Q9UBN7)
T1 construct: purchased Calbiochem 382180
T1 sequence (Q9UBN7 1-1215): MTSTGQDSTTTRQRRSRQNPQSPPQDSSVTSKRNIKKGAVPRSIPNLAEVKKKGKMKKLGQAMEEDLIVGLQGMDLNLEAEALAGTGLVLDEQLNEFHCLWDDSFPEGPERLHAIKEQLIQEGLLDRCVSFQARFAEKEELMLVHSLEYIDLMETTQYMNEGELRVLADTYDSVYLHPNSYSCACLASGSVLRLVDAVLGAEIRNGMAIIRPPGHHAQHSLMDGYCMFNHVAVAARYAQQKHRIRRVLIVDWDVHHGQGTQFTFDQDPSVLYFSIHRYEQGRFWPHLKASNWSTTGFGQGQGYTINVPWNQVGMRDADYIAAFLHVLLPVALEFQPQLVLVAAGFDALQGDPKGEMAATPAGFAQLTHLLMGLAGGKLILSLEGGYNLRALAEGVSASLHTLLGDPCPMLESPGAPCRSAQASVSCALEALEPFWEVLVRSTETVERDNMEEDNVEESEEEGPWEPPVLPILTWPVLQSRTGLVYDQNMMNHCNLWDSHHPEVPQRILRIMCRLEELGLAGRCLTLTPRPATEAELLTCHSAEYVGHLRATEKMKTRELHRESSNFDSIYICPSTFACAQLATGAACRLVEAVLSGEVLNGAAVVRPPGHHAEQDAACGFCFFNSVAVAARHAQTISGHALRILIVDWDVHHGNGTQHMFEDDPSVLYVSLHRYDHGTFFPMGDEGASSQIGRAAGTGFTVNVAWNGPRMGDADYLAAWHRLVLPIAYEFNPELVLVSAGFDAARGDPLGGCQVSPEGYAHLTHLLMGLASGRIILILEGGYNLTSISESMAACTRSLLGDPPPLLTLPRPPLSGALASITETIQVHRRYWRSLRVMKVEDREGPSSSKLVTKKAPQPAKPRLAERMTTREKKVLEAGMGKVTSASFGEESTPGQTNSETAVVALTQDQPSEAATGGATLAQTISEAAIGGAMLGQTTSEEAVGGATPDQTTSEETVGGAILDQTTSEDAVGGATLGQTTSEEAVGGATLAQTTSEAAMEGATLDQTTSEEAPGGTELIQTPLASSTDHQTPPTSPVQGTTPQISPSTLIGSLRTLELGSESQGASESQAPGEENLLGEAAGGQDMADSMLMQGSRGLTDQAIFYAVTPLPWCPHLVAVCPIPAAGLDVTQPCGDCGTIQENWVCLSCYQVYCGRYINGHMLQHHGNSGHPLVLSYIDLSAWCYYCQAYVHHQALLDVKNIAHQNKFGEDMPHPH
Assay: HDAC6 enzyme activity inhibition assay (HDAC Fluorimetric Drug Discovery Kit)
Type: biochemical
Settings: for HDAC6 selectivity (fold): HDAC1 vs HDAC6; for IC50: same protocol as the HDAC1 enzyme activity test
How it was run: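 Recombinant enzyme (0.3 μg) was incubated with 5-fold serially diluted compound and 10 μM Fluor de Lys-SIRT1 substrate for 60 min at 30° C. Developer II was then added for 30 min, fluorescence read at Ex 360/Em 460, and IC50 values were calculated.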

HDAC6 selectivity (fold) | IC50 [nM] | SMILES
2849 | 35.1 | O=S(=O)(CCN1CCC[C@H]1CO)N(Cc1ccc(-c2nnc(C(F)F)o2)cc1)c1ccccc1 [Compound 11802, (S)—N-(4-(5-(difluoromethyl)-1,3,4-oxadiazol-2-yl)benzyl)-2-(2-(hydroxymethyl)pyrrolidin-1-yl)-N-phenylethane-1-sulfonamide]
4587 | 21.8 | O=S(=O)(CCN1CCC[C@@H]1CO)N(Cc1ccc(-c2nnc(C(F)F)o2)cc1)c1ccccc1 [Compound 11803, (R)—N-(4-(5-(difluoromethyl)-1,3,4-oxadiazol-2-yl)benzyl)-2-(2-(hydroxymethyl)pyrrolidin-1-yl)-N-phenylethane-1-sulfonamide]
4000 | 25 | Cc1nccn1CCS(=O)(=O)N(Cc1ccc(-c2nnc(C(F)F)o2)cc1)c1ccccc1 [Compound 11806, N-(4-(5-(difluoromethyl)-1,3,4-oxadiazol-2-yl)benzyl)-2-(2-methyl-1H-imidazol-1-yl)-N-phenylethane-1-sulfonamide]
3222 | 30.1 | O=S(=O)(CCn1cncn1)N(Cc1ccc(-c2nnc(C(F)F)o2)cc1)c1ccccc1 [Compound 11809, N-(4-(5-(difluoromethyl)-1,3,4-oxadiazol-2-yl)benzyl)-N-phenyl-2-(1H-1,2,4-triazol-1-yl)ethane-1-sulfonamide]
2358 | 42.4 | O=S(=O)(CCN1CCCC(CO)C1)N(Cc1ccc(-c2nnc(C(F)F)o2)cc1)c1ccccc1 (centres unmarked) [Compound 11811, N-(4-(5-(difluoromethyl)-1,3,4-oxadiazol-2-yl)benzyl)-2-(3-(hydroxymethyl)piperidin-1-yl)-N-phenylethane-1-sulfonamide]
3039 | 32.9 | NC(=O)[C@@H]1CCCN1CCS(=O)(=O)N(Cc1ccc(-c2nnc(C(F)F)o2)cc1)c1ccccc1 [Compound 11812, (S)-1-(2-(N-(4-(5-(difluoromethyl)-1,3,4-oxadiazol-2-yl)benzyl)-N-phenylsulfamoyl)ethyl)pyrrolidine-2-carboxamide]
1718 | 58.2 | O=S(=O)(CCN1CCC[C@H](O)C1)N(Cc1ccc(-c2nnc(C(F)F)o2)cc1)c1ccccc1 [Compound 11817, (S)—N-(4-(5-(difluoromethyl)-1,3,4-oxadiazol-2-yl)benzyl)-2-(3-hydroxypiperidin-1-yl)-N-phenylethane-1-sulfonamide]
284 | 351 | O=S(=O)(CCN1CCC(c2ccc(F)cc2)CC1)N(Cc1ccc(-c2nnc(C(F)F)o2)cc1)c1ccccc1 [Compound 11819, N-(4-(5-(difluoromethyl)-1,3,4-oxadiazol-2-yl)benzyl)-2-(4-(4-fluorophenyl)piperidin-1-yl)-N-phenylethane-1-sulfonamide]
747 | 134 | O=S(=O)(CCN1CC(F)(F)C1)N(Cc1ccc(-c2nnc(C(F)F)o2)cc1)c1ccccc1 [Compound 11821, 2-(3,3-difluoroazetidin-1-yl)-N-(4-(5-(difluoromethyl)-1,3,4-oxadiazol-2-yl)benzyl)-N-phenylethane-1-sulfonamide]
3147 | 31.8 | O=C(CO)N1CC(N2CCC(S(=O)(=O)N(Cc3ccc(-c4nnc(C(F)F)o4)cc3)c3cccc(Cl)c3)CC2)C1 [Compound 11836, N-(3-chlorophenyl)-N-(4-(5-(difluoromethyl)-1,3,4-oxadiazol-2-yl)benzyl)-1-(1-(2-hydroxyacetyl)azetidin-3-yl)piperidine-4-sulfonamide]

More lines, now with the values behind:

SMILES | HDAC6 selectivity (fold) | IC50 [nM]
O=S(=O)(CCN1CC[C@H](CO)C1)N(Cc1ccc(-c2nnc(C(F)F)o2)cc1)c1ccccc1 [Compound 11804, (S)—N-(4-(5-(difluoromethyl)-1,3,4-oxadiazol-2-yl)benzyl)-2-(3-(hydroxymethyl)pyrrolidin-1-yl)-N-phenylethane-1-sulfonamide] | 3115 | 32.1
O=S(=O)(CCN1CC[C@@H](CO)C1)N(Cc1ccc(-c2nnc(C(F)F)o2)cc1)c1ccccc1 [Compound 11805, (R)—N-(4-(5-(difluoromethyl)-1,3,4-oxadiazol-2-yl)benzyl)-2-(3-(hydroxymethyl)pyrrolidin-1-yl)-N-phenylethane-1-sulfonamide] | 3021 | 33.1
Cc1cncn1CCS(=O)(=O)N(Cc1ccc(-c2nnc(C(F)F)o2)cc1)c1ccccc1 [Compound 11807, N-(4-(5-(difluoromethyl)-1,3,4-oxadiazol-2-yl)benzyl)-2-(5-methyl-1H-imidazol-1-yl)-N-phenylethane-1-sulfonamide] | 1584 | 63.1
O=S(=O)(CCn1cnc(CO)c1)N(Cc1ccc(-c2nnc(C(F)F)o2)cc1)c1ccccc1 [Compound 11808, N-(4-(5-(difluoromethyl)-1,3,4-oxadiazol-2-yl)benzyl)-2-(4-(hydroxymethyl)-1H-imidazol-1-yl)-N-phenylethane-1-sulfonamide] | 2881 | 34.7
O=S(=O)(CCN1CCC(CO)CC1)N(Cc1ccc(-c2nnc(C(F)F)o2)cc1)c1ccccc1 [Compound 11810, N-(4-(5-(difluoromethyl)-1,3,4-oxadiazol-2-yl)benzyl)-2-(4-(hydroxymethyl)piperidin-1-yl)-N-phenylethane-1-sulfonamide] | 2793 | 35.8
NC(=O)[C@H]1CCCN1CCS(=O)(=O)N(Cc1ccc(-c2nnc(C(F)F)o2)cc1)c1ccccc1 [Compound 11813, (R)-1-(2-(N-(4-(5-(difluoromethyl)-1,3,4-oxadiazol-2-yl)benzyl)-N-phenylsulfamoyl)ethyl)pyrrolidine-2-carboxamide] | 2932 | 34.1
CC(C)(C)OC(=O)N1CC2(CCN(CCS(=O)(=O)N(Cc3ccc(-c4nnc(C(F)F)o4)cc3)c3ccccc3)CC2)C1 [Compound 11814, tert-butyl 7-(2-(N-(4-(5-(difluoromethyl)-1,3,4-oxadiazol-2-yl)benzyl)-N-phenylsulfamoyl)ethyl)-2,7-diazaspiro[3.5]nonane-2-carboxylate] | 88 | 1130
O=S(=O)(CCN1CCC(F)(F)C1)N(Cc1ccc(-c2nnc(C(F)F)o2)cc1)c1ccccc1 [Compound 11815, N-(4-(5-(difluoromethyl)-1,3,4-oxadiazol-2-yl)benzyl)-2-(3,3-difluoropyrrolidin-1-yl)-N-phenylethane-1-sulfonamide] | 1326 | 75.4
O=S(=O)(CCn1ccnc1)N(Cc1ccc(-c2nnc(C(F)F)o2)cc1)c1ccccc1 [Compound 11816, N-(4-(5-(difluoromethyl)-1,3,4-oxadiazol-2-yl)benzyl)-2-(1H-imidazol-1-yl)-N-phenylethane-1-sulfonamide] | 2695 | 37.1
N#CC1CCN(CCS(=O)(=O)N(Cc2ccc(-c3nnc(C(F)F)o3)cc2)c2ccccc2)CC1 [Compound 11818, 2-(4-cyanopiperidin-1-yl)-N-(4-(5-(difluoromethyl)-1,3,4-oxadiazol-2-yl)benzyl)-N-phenylethane-1-sulfonamide] | 1647 | 60.7
COC(=O)C1CN(CCS(=O)(=O)N(Cc2ccc(-c3nnc(C(F)F)o3)cc2)c2ccccc2)C1 [Compound 11820, methyl 1-(2-(N-(4-(5-(difluoromethyl)-1,3,4-oxadiazol-2-yl)benzyl)-N-phenylsulfamoyl)ethyl)azetidine-3-carboxylate] | 1652 | 60.5
O=S(=O)(CCN1CCC(O)CC1)N(Cc1ccc(-c2nnc(C(F)F)o2)cc1)c1ccccc1 [Compound 11822, N-(4-(5-(difluoromethyl)-1,3,4-oxadiazol-2-yl)benzyl)-2-(4-hydroxypiperidin-1-yl)-N-phenylethane-1-sulfonamide] | 1365 | 73.3
